In patent US10287301B2 (Achillion Pharmaceuticals, Inc., priority 2015, dated 2019):
pIC50: −log10 of the molar value.

molecular target: Human Factor D (Homo sapiens (Human), UniProt P00746); assay: Human Factor D Assay; type: biochemical; conditions: not given
How it was run: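 Factor D (from human serum) 80 nM final + cpd, 5 min RT, 50 mM Tris/1M NaCl pH 7.5; add Z-L-Lys-SBzl 100 μM and DTNB 100 μM final. IC50 by nonlinear fit of rates vs [cpd].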

Chain of Human Factor D (P00746 26-253): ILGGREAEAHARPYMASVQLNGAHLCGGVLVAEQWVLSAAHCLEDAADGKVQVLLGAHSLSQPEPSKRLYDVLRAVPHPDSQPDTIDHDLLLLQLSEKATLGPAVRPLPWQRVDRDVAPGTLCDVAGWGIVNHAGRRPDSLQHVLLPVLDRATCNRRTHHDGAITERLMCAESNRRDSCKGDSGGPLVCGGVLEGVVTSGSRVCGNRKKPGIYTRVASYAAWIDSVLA

Q: With `CCc1cn(CC(=O)N2NCCC2C(=O)Nc2cccc(-c3ccccc3Cl)c2F)c2ccc(-c3cnc(C)nc3)cc12` (stereo not shown) [Compound 267, N-(2′-chloro-2-fluorobiphenyl-3-yl)-2-(2-(3-ethyl-5-(2-methylpyrimidin-5-yl)-1H-indol-1-yl)acetyl)pyrazolidine-3-carboxamide] as the compound, how does the pIC50 read?
A: 5.00 to 6.00

same assay, conditions: Human Factor D assay of Example 8; Table 2; read-out: IC50

Q: `CC(=O)c1nn(CC(=O)N2C[C@H](F)C[C@H]2C(=O)Nc2cccc(Br)n2)c2ccc(-c3cnc4c(C#N)c(C)nn4c3)cc12` [Compound 262, (2S,4R)-1-(2-(3-acetyl-5-(3-cyano-2-methylpyrazolo[1,5-a]pyrimidin-6-yl)-1H-indazol-1-yl)acetyl)-N-(6-bromopyridin-2-yl)-4-fluoropyrrolidine-2-carboxamide] was tested. Which pIC50 did it give?
A: > 6.00

Q: `CC(=O)c1nn(CC(=O)N2C[C@H](F)C[C@H]2C(=O)Nc2cccc(Br)n2)c2ccc(-c3cnc4c(C#N)cnn4c3)cc12` [Compound 263, (2S,4R)-1-(2-(3-acetyl-5-(3-cyanopyrazolo[1,5-a]pyrimidin-6-yl)-1H-indazol-1-yl)acetyl)-N-(6-bromopyridin-2-yl)-4-fluoropyrrolidine-2-carboxamide] was tested. Which pIC50 did it give?
A: > 6.00

Q: How did the pIC50 turn out when `CC(=O)c1nn(CC(=O)N2C[C@H](F)C[C@H]2C(=O)Nc2cccc(C(F)(F)F)n2)c2ccc(-c3cnc4cc(C)nn4c3)cc12` [Compound 264, (2S,4R)-1-(2-(3-acetyl-5-(2-methylpyrazolo[1,5-a]pyrimidin-6-yl)-1H-indazol-1-yl)acetyl)-4-fluoro-N-(6-(trifluoromethyl)pyridin-2-yl)pyrrolidine-2-carboxamide] was run?
A: > 6.00

Q: With `CC(=O)c1nn(CC(=O)N2C[C@H](F)C[C@H]2C(=O)Nc2cccc(C#N)n2)c2ccc(-c3cnc4cc(C)nn4c3)cc12` [Compound 265, (2S,4R)-1-(2-(3-acetyl-5-(2-methylpyrazolo[1,5-a]pyrimidin-6-yl)-1H-indazol-1-yl)acetyl)-N-(6-cyanopyridin-2-yl)-4-fluoropyrrolidine-2-carboxamide] as the compound, how does the pIC50 read?
A: > 6.00

Q: `CC(=O)c1nn(CC(=O)N2C[C@H](F)C[C@H]2C(=O)Nc2cccc(Br)n2)c2ccc(-c3cnc(C)nc3C)cc12` [Compound 266, (2S,4R)-1-(2-(3-acetyl-5-(2,4-dimethylpyrimidin-5-yl)-1H-indazol-1-yl)acetyl)-N-(6-bromopyridin-2-yl)-4-fluoropyrrolidine-2-carboxamide] was tested. Which pIC50 did it give?
A: > 6.00

Q: How did the pIC50 turn out when `CC(=O)c1nn(CC(=O)N2C[C@H](F)C[C@H]2C(=O)Nc2cccc(Br)n2)c2ccc(-c3cnc4c(C)cnn4c3)cc12` [Compound 268, (2S,4R)-1-(2-(3-acetyl-5-(3-methylpyrazolo[1,5-a]pyrimidin-6-yl)-1H-indazol-1-yl)acetyl)-N-(6-bromopyridin-2-yl)-4-fluoropyrrolidine-2-carboxamide] was run?
A: > 6.00

Q: `COCCNc1ncc(-c2ccc3c(c2)c(C(C)=O)nn3CC(=O)N2C[C@H](F)C[C@H]2C(=O)Nc2cccc(Br)n2)cn1` [Compound 269, (2S,4R)-1-(2-(3-acetyl-5-(2-(2-methoxyethylamino)pyrimidin-5-yl)-1H-indazol-1-yl)acetyl)-N-(6-bromopyridin-2-yl)-4-fluoropyrrolidine-2-carboxamide] was tested. Which pIC50 did it give?
A: > 6.00

Q: How did the pIC50 turn out when `CC(=O)c1nn(CC(=O)N2CC[C@@H](N)[C@H]2C(=O)Nc2cccc(Br)n2)c2ccc(-c3cnc(C)nc3)cc12` [Compound 270, (2S,3R)-1-(2-(3-Acetyl-5-(2-methylpyrimidin-5-yl)-1H-indazol-1-yl)acetyl)-3-amino-N-(6-bromopyridin-2-yl)pyrrolidine-2-carboxamide] was run?
A: > 6.00

Q: With `CC(=O)c1nn(CC(=O)N2C(=O)CC[C@H]2C(=O)Nc2cccc(Br)n2)c2ccc(-c3cnc(C)nc3)cc12` [Compound 271, (S)-1-(2-(3-Acetyl-5-(2-methylpyrimidin-5-yl)-1H-indazol-1-yl)acetyl)-N-(6-bromopyridin-2-yl)-5-oxopyrrolidine-2-carboxamide] as the compound, how does the pIC50 read?
A: > 6.00

Q: `CC(=O)c1nn(CC(=O)N2C[C@H](F)C[C@H]2C(=O)Nc2cccc(-c3c(F)c(F)c(F)c(F)c3F)c2F)c2ccc(-c3cnc(C)nc3)cc12` [Compound 272, (2S,4R)-1-(2-(3-acetyl-5-(2-methylpyrimidin-5-yl)-1H-indazol-1-yl)acetyl)-4-fluoro-N-(2,2′,3′,4′,5′,6′-hexafluorobiphenyl-3-yl)pyrrolidine-2-carboxamide] was tested. Which pIC50 did it give?
A: > 6.00

Q: `CC(=O)c1nn(CC(=O)N2C[C@H](F)C[C@H]2C(=O)Nc2cccc(Br)c2F)c2ccc(-c3cnc(C)nc3)cc12` [Compound 273, (2S,4R)-1-(2-(3-acetyl-5-(2-methylpyrimidin-5-yl)-1H-indazol-1-yl)acetyl)-N-(3-bromo-2-fluorophenyl)-4-fluoropyrrolidine-2-carboxamide] was tested. Which pIC50 did it give?
A: > 6.00

Q: With `CC(=O)c1nn(CC(=O)N2C[C@H](F)C[C@H]2C(=O)Nc2cccc(Br)n2)c2ccc(-c3cnc4cc(C(C)C)nn4c3)cc12` [Compound 274, (2S,4R)-1-(2-(3-acetyl-5-(2-isopropylpyrazolo [1,5-a]pyrimidin-6-yl)-1H-indazol-1-yl)acetyl)-N-(6-bromopyridin-2-yl)-4-fluoropyrrolidine-2-carboxamide] as the compound, how does the pIC50 read?
A: > 6.00

Q: `COc1cccc(NC(=O)[C@@H]2C[C@@H](F)CN2C(=O)Cn2nc(C(C)=O)c3cc(-c4cnc5cc(C)nn5c4)ccc32)c1F` [Compound 275, (2S,4R)-1-(2-(3-acetyl-5-(2-methylpyrazolo[1,5-a]pyrimidin-6-yl)-1H-indazol-1-yl)acetyl)-4-fluoro-N-(2-fluoro-3-methoxyphenyl) pyrrolidine-2-carboxamide] was tested. Which pIC50 did it give?
A: > 6.00

Q: With `CC(=O)c1cn(CC(=O)N2C[C@H](F)C[C@H]2C(=O)Nc2cccc(OC(F)(F)F)c2F)c2ccc(-c3cnc4cc(C)nn4c3)cc12` [Compound 276, (2S,4R)-1-(2-(3-acetyl-5-(2-methylpyrazolo[1,5-a]pyrimidin-6-yl)-1H-indol-1-yl)acetyl)-4-fluoro-N-(2-fluoro-3-(trifluoromethoxy)phenyl)pyrrolidine-2-carboxamide] as the compound, how does the pIC50 read?
A: > 6.00

Q: How did the pIC50 turn out when `CC(=O)c1cn(CC(=O)N2C[C@H](F)C[C@H]2C(=O)Nc2cccc(Br)n2)c2ccc(-c3cnc4cc(C)nn4c3)cc12` [Compound 277, (2S,4R)-1-(2-(3-acetyl-5-(2-methylpyrazolo[1,5-a]pyrimidin-6-yl)-1H-indol-1-yl)acetyl)-N-(6-bromopyridin-2-yl)-4-fluoropyrrolidine-2-carboxamide] was run?
A: > 6.00

Q: How did the pIC50 turn out when `Cc1ncc(-c2cc3c(C(N)=O)nn(CC(=O)N4C[C@H](F)C[C@H]4C(=O)Nc4cccc(Br)n4)c3cn2)cn1` [Compound 278, 1-(2-((2S,4R)-2-(6-bromopyridin-2-ylcarbamoyl)-4-fluoropyrrolidin-1-yl)-2-oxoethyl)-5-(2-methylpyrimidin-5-yl)-1H-pyrazolo[3,4-c]pyridine-3-carboxamide] was run?
A: > 6.00

Q: With `C=CCCCCCCCCCNc1ncc(-c2ccc3c(c2)c(C(C)=O)nn3CC(=O)N2C[C@H](F)C[C@H]2C(=O)NCc2cc(C=C)cc(Cl)c2F)cn1` [Compound 279, (2S,4R)-1-(2-(3-acetyl-5-(2-(undec-10-enylamino)pyrimidin-5-yl)-1H-indazol-1-yl)acetyl)-N-(3-chloro-2-fluoro-5-vinylbenzyl)-4-fluoropyrrolidine-2-carboxamide] as the compound, how does the pIC50 read?
A: < 5.00

Q: `CC(=O)c1nn(CC(=O)N2C[C@H](F)C[C@H]2C(=O)Nc2cccc(OC(F)F)c2F)c2ccc(-c3cnc4cc(C)nn4c3)cc12` [Compound 281, (2S,4R)-1-(2-(3-acetyl-5-(2-methylpyrazolo[1,5-a]pyrimidin-6-yl)-1H-indazol-1-yl)acetyl)-N-(3-(difluoromethoxy)-2-fluorophenyl)-4-fluoropyrrolidine-2-carboxamide] was tested. Which pIC50 did it give?
A: > 6.00

Q: With `CC(=O)c1nn(CC(=O)N2C[C@H](F)C[C@H]2C(=O)Nc2cccc(OC(F)F)c2F)c2ccc(-c3cnc4ccnn4c3)cc12` [Compound 282, (2S,4R)-1-(2-(3-acetyl-5-(pyrazolo[1,5-a]pyrimidin-6-yl)-1H-indazol-1-yl)acetyl)-N-(3-(difluoromethoxy)-2-fluorophenyl)-4-fluoropyrrolidine-2-carboxamide] as the compound, how does the pIC50 read?
A: > 6.00

Q: How did the pIC50 turn out when `Cc1cc2ncc(-c3cc4c(C(N)=O)nn(CC(=O)N5C[C@H](F)C[C@H]5C(=O)Nc5cccc(OC(F)(F)F)c5F)c4cn3)cn2n1` [Compound 283, 1-(2-((2S,4R)-4-fluoro-2-(2-fluoro-3-(trifluoromethoxy)phenylcarbamoyl)pyrrolidin-1-yl)-2-oxoethyl)-5-(2-methylpyrazolo[1,5-a]pyrimidin-6-yl)-1H-pyrazolo[3,4-c]pyridine-3-carboxamide] was run?
A: > 6.00

Q: `Cc1cc2ncc(-c3ccc4c(c3)c(C(N)=O)nn4CC(=O)N3C[C@H](F)C[C@H]3C(=O)Nc3cccc(Br)n3)cn2n1` [Compound 284, 1-(2-((2S,4R)-2-(6-bromopyridin-2-ylcarbamoyl)-4-fluoropyrrolidin-1-yl)-2-oxoethyl)-5-(2-methylpyrazolo[1,5-a]pyrimidin-6-yl)-1H-indazole-3-carboxamide] was tested. Which pIC50 did it give?
A: > 6.00

Q: `CC(=O)c1nn(CC(=O)N2CC=C[C@H]2C(=O)Nc2cccc(-c3ccccc3Cl)c2F)c2ccc(-c3cnc(C)nc3)cc12` [Compound 286, (S)-1-(2-(3-acetyl-5-(2-methylpyrimidin-5-yl)-1H-indazol-1-yl)acetyl)-N-(2′-chloro-2-fluorobiphenyl-3-yl)-2,5-dihydro-1H-pyrrole-2-carboxamide] was tested. Which pIC50 did it give?
A: > 6.00

Q: With `CCOC(=O)c1cc2ncc(-c3ccc4c(c3)c(C(C)=O)nn4CC(=O)N3C[C@H](F)C[C@H]3C(=O)Nc3cccc(Br)n3)cn2n1` [Compound 287, ethyl 6-(3-acetyl-1-(2-((2S,4R)-2-(6-bromopyridin-2-ylcarbamoyl)-4-fluoropyrrolidin-1-yl)-2-oxoethyl)-1H-indazol-5-yl)pyrazolo[1,5-a]pyrimidine-2-carboxylate] as the compound, how does the pIC50 read?
A: > 6.00

Q: How did the pIC50 turn out when `CC(=O)c1nn(CC(=O)N2C[C@H](F)C[C@H]2C(=O)Nc2cccc(Br)n2)c2ccc(-c3cnc4cc(C(N)=O)nn4c3)cc12` [Compound 288, 6-(3-Acetyl-1-(2-((2S,4R)-2-((6-Bromopyridin-2-yl)carbamoyl)-4-fluoropyrrolidin-1-yl)-2-oxoethyl)-1H-indazol-5-yl)pyrazolo[1,5-a]pyrimidine-2-carboxamide] was run?
A: > 6.00
